Drawing on US20250035616A1, “Organoid Compositions” (SHIMADZU CORPORATION, priority 2023, published 2025), this text covers cell viability for three compounds.

Data set [1] has as its system HYDROX-cultured human liver organoid composition. On the procedure:
In this Example, the human liver organoid produced in Reference Example 1 was cultured with HYDROX (FIG. 1A) to produce a human liver organoid composition including the HYDROX, and its liver function was identified. The Matrigel-cultured human liver organoid produced in Reference Example 1 was treated with TrypLE Select so that the Matrigel was degraded. The resultant cell cluster was suspended in the medium for a human liver organoid, and was seeded on a HYDROX plate at 300 μL/well, followed by three-dimensional culture (HYDROX culture). The cell cluster was reseeded on a new HYDROX plate every 7 days. The HYDROX plate was produced as described below. In a 48-well adhesive plate, a HYDROX raw material polymer (Psar-PLLA) was mixed with 95% ethanol (Nacalai tesque) at a concentration of 10 mg/mL, and the mixture was warmed at 70° C. for 10 minutes. The dissolved polymer solution was dropped into a culture plate, and was dried for 8 hours or more to produce the human liver organoid composition including the HYDROX. In this Example and the following Examples, the human liver organoid composition including the HYDROX is referred to as “HYDROX-cultured human liver organoid composition.”
(§1) Further, at the initial stage of the development of a new drug, the safety of the drug needs to be accurately evaluated by a hepatotoxicity evaluation test. Accordingly, an investigation was made on the potential of the HYDROX-cultured human liver organoid composition to be applied to the hepatotoxicity evaluation test.

The test system of the next data set is primary human liver cell. On the procedure:
In this Reference Example, 1 lot (lot name: HC4-24, XenoTech) of cultured primary human liver cells were cultured. The cells were rapidly thawed in a shaking water bath at 37° C., and were suspended in OptiTHAW Hepatocyte Isolation Kit (XenoTech) that had been preheated, followed by centrifugation at 100 g and room temperature for 5 minutes. The liver cells were suspended in HCM (Lonza) so that their density became 2.5×10^5 cells/cm^2, followed by seeding on 48-well Corning^RBioCoat™ Collagen I-coated Microplates (Corning). After the cells had been cultured for 48 hours, various tests were performed.
as §1

SMILES strings stand for the structures.

On to `Cc1c(C)c2c(c(C)c1O)CCC(C)(COc1ccc(CC3SC(=O)NC3=O)cc1)O2` (centres unmarked) [Troglitazone], for which the cell viability entry (in data set [1]; in the data set with primary human liver cell) was “the viability reduced in accordance with the concentration of each of the drugs” in each case.

With `CC(=O)Nc1ccc(O)cc1` [acetaminophen], the cell viability entry in data set [1] is given as “the viability reduced in accordance with the concentration of each of the drugs”. Take `CCCCc1oc2ccccc2c1C(=O)c1cc(I)c(OCCN(CC)CC)c(I)c1` [amiodarone]: the cell viability entry (in data set [1]; with primary human liver cell) was “the viability reduced in accordance with the concentration of each of the drugs” throughout.
